This is an account of results in US8486940B2, “Inhibitors” (Probiodrug AG, priority 2009, dated 2013).

Chain of hQC (Q16769 29-361): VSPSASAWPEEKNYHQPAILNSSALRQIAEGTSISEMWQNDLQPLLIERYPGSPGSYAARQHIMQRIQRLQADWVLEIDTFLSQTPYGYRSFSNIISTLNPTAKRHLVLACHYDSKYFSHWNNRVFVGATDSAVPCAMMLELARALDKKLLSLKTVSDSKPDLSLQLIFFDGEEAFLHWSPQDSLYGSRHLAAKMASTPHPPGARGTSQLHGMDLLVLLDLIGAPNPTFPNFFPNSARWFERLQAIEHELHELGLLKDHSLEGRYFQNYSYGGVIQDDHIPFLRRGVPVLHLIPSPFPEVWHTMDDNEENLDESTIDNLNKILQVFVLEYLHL

This assay addresses hQC (Homo sapiens (Human), UniProt Q16769). Description: QC inhibitor assay (fluorometric / spectrophotometric QC activity assays). The class given is biochemical. The method, then:
Excitation/emission wavelengths were 320/410 nm.
This novel assay was used to determine the kinetic parameters for most of the QC substrates. […] Samples consisted of the respective QC substrate, 0.3 mM NADH, 14 mM α-Ketoglutaric acid and 30 U/ml glutamate dehydrogenase in a final volume of 250 μl. Reactions were started by addition of QC and persued by monitoring of the decrease in absorbance at 340 nm for 8-15 min.
All samples were measured at 30° C., using either the […]uor Plus or the Sunrise (both from TECAN) reader for microplates. Kinetic data was evaluated using GraFit software.
For inhibitor testing, the sample composition was the same as described above, except of the putative inhibitory compound added. For a rapid test of QC-inhibition, samples contained 4 mM of the respective inhibitor and a substrate concentration at 1 KM. For detailed investigations of the inhibition and determination of K,-values, influence of the inhibitor on the auxiliary enzymes was investigated first. […] The inhibitory constant was evaluated by fitting the set of progress curves to the general equation for competitive inhibition using GraFit software.
With `O=C1NCC(C2CCCCC2)N1c1ccc2[nH]cnc2c1` (centres unmarked) [Example 2, 1-(1H-benzo[d]imidazol-5-yl)-5-cyclohexylimidazolidin-2-one], the IC50 was less than 10 µM. The figure for `O=C1NCC(c2ccc(N3CCCCC3)cc2)N1c1ccc2[nH]cnc2c1` (centres unmarked) [Example 175, 1-(1H-benzo[d]imidazol-5-yl)-5-(4-(piperidin-1-yl)phenyl)imidazolidin-2-one] is less than 10 µM; for `CC(C)[C@H]1COC(=O)N1c1ccc2[nH]cnc2c1` [Example 68, (S)-3-(1H-benzo[d]imidazol-5-yl)-4-isopropyloxazolidin-2-one] it is less than 10 µM.

For the compound `O=C1NCC(c2ccccc2)N1c1ccc2[nH]cnc2c1` (centres unmarked) [Example 3, 1-(1H-benzo[d]imidazol-5-yl)-5-phenylimidazolidin-2-one], the IC50 was less than 10 µM. To `COc1ccc(C2CCCN2c2ccc3[nH]cnc3c2)cc1` (centres unmarked) [Example 102, 5-(2-(4-methoxyphenyl)pyrrolidin-1-yl)-1H-benzo[d]imidazole] belongs less than 10 µM; to `O=C1CSC(c2ccsc2)N1c1ccc2nc[nH]c2c1` (centres unmarked) [Example 116, 3-(1H-benzo[d]imidazol-6-yl)-2-(thiophen-3-yl)thiazolidin-4-one], less than 10 µM. The figure for `S=C1CSC(c2ccccc2)N1c1ccc2[nH]cnc2c1` (centres unmarked) [Example 118, 3-(1H-benzo[d]imidazol-5-yl)-2-phenylthiazolidine-4-thione] is less than 10 µM. `COc1ccc(C2CNC(=O)N2c2ccc3[nH]cnc3c2)cc1` (centres unmarked) [Example 5, 1-(1H-benzo[d]imidazol-5-yl)-5-(4-methoxyphenyl)imidazolidin-2-one] displayed an IC50 of less than 10 µM.
